Where two headings read alike, the source gives them in different places.
Experiments:
ETB [1] = target: T1, ETB (Homo sapiens, UniProt P24530); details: Riechers et al (1996); read-out: affinity for ETB (KiB); cited from earlier work
T1 sequence (P24530 27-442): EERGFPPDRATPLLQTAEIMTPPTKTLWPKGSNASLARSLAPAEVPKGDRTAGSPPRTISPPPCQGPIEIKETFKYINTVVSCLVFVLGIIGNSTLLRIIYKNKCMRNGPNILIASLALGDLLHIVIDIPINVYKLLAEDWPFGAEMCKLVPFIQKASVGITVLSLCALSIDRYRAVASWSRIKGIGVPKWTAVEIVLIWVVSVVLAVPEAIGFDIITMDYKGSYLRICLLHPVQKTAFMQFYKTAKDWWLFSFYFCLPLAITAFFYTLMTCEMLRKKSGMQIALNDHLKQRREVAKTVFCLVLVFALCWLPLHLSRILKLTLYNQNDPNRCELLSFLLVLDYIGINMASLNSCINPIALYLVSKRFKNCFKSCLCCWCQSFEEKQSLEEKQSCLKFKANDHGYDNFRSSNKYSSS

ETA [2] = target: T2, ETA (Homo sapiens, UniProt P25101); assay: ETA receptor affinity reported by Riechers et al (1996); type: binding; details: calculated from Riechers et al (1996) data
T2 sequence (P25101 21-427): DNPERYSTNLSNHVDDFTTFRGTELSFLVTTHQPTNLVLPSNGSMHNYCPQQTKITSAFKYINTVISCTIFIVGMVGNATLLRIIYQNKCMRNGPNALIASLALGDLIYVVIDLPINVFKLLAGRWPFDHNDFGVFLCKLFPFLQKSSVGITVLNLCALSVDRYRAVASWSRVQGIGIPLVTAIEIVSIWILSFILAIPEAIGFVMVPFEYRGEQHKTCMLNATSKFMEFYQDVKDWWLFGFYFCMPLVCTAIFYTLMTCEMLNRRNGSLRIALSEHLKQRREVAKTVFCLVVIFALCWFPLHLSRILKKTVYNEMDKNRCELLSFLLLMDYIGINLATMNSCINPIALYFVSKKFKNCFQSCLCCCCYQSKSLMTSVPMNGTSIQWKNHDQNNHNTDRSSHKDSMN

ETA [3] = target: T2, ETA; details: Riechers et al (1996); read-out: affinity for ETA (KiA); cited from earlier work
ETA [4] = target: T2, ETA; details: Lip (2001); cited from earlier work
ETA [5] = target: T2, ETA; assay: 125[I]-endothelin-1 receptor binding cold ligand competition curves in human myocardial membranes (ETA); set-up: human myocardial membranes prepared from failing and non-failing left ventricles; from tissue; host or cells: human left ventricular myocardium (failing and non-failing), membranes; details: mean of 8 assays
[6] = PK of darusentan tablets, single oral dose, congestive heart failure patients (Example 3); type: in vivo, human; details: CHF patients, single oral doses 10-300 mg
Excerpt: This was a multi-center, prospective, uncontrolled clinical trial. […] At least 12 patients received each dose, in addition to their normal medication for CHF.
Arithmetic means and standard deviations of Cmax, Tmax and AUC, based on individual values of these parameters calculated by standard PK methods, are presented in Table 3. As this was a single dose study, Cmin was not determined.

ETB [7] = target: T1, ETB; assay: 125[I]-endothelin-1 receptor binding cold ligand competition curves in human myocardial membranes (ETB); set-up: human myocardial membranes prepared from failing and non-failing left ventricles; from tissue; host or cells: human left ventricular myocardium (failing and non-failing), membranes; details: 10 μM Gpp(NH)p, 4-hour incubation, steady-state binding, mean of 8 assays
[8] = published values, Boss et al. (2001); cited from earlier work

Row | Ki (ETA [5]; 10 μM Gpp(NH)p, 4-hour incubation, steady-state binding) [nM] | ETA selectivity (fold) (ETA [5]) | Pharmacokinetics: dose dependence of Cmax and AUC [6] | Ki (ETB [7]) [nM] | SMILES | Ki (ETB [1]) [nM] | ETA/ETB selectivity (KiB/KiA) (ETA [2]) | Ki (ETA [3]) [nM] | ETA/ETB selectivity (ETA [4]) | T1/2 [8] [h]
1 | – | – | – | – | COc1cc(OC)nc(OC(C(=O)O)C(OC)(c2ccccc2)c2ccccc2)n1 (racemic) [racemate, 2-(4,6-dimethoxypyrimidin-2-yloxy)-3-methoxy-3,3-diphenylpropionic acid] | 371 | about 62 | 6 | – | –
2 | 0.178 ± 0.055 | 1181 ± 148 | appeared to be linear | 216 ± 85 | COc1cc(OC)nc(O[C@H](C(=O)O)C(OC)(c2ccccc2)c2ccccc2)n1 [darusentan, (+)-(S)-2-(4,6-dimethoxypyrimidin-2-yloxy)-3-methoxy-3,3-diphenylpropionic acid] | – | – | 3 | about 160 | 10 to 12
3 | – | – | – | – | COc1cc(OC)nc(O[C@@H](C(=O)O)C(OC)(c2ccccc2)c2ccccc2)n1 [less potent enantiomer] | – | – | 150 | – | –

Source: US20080145433A1 (GILEAD COLORADO, INC., priority 2006, published 2008)
